Reference: patent publication EP2662079A1 (Ordway Research Institute, Inc., priority 2012, dated 2013)

System: GL261 tumor cells
Assay: 44°C hyperthermia survival
Format: cell-based, murine
Procedure: Additionally, Tetrac sensitizes GL261 cells in hyperthermic conditions. Graded heat treatment of GL261 tumor cells with 44°C was given, without and with Tetrac. Tetrac increased cell killing as compared to control cells alone, by the equivalent of about 1°C (i.e., 44°C plus Tetrac is the equivalent of 45°C without Tetrac). (See Figure 63).

Question: With `O=C(O)Cc1cc(I)c(Oc2cc(I)c(O)c(I)c2)c(I)c1` [Tetrac, 3,3',5,5'-tetraiodothyroacetic acid] as the compound, how does the “increase in cell killing as temperature equivalent” value (44°C plus Tetrac) read?
Answer: about 1 °C

Question: And the sensitization factor (Tetrac 2uM, 20 minutes at 44°C)?
Answer: 3.8
